From PubChem BioAssay (NCI) come the findings set out here.

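48-hour exposure; five concentrations; linearly interpolated endpoints. TGI is the concentration that stops growth completely.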

What all share (assay): inhibition of tumour cell growth, NCI panel, 48 h
Experiment [1] has as its system SR leukemia.
Experiment [2] has as its system OVCAR-5 ovarian.
The test system of experiment [3] is SW-620 colon.
For experiment [4], the system named is NCI-H226 lung.
Experiment [5] concerns UACC-62 melanoma.
Experiment [6] has as its system NCI-H522 lung.
In experiment [7] the test system is ACHN renal.
For experiment [8], the system named is M14 melanoma.
For experiment [9], the system named is NCI/ADR-RES ovarian.
In experiment [10] the test system is U251 CNS.
Experiment [11] concerns A498 renal.
The subject of experiment [12] is SN12C renal.
Experiment [13] concerns SF-539 CNS.
For experiment [14], the system named is UO-31 renal.
Experiment [15] concerns DU-145 prostate.
In experiment [16] the test system is T-47D breast.
Experiment [17] concerns SF-268 CNS.
Experiment [18] has as its system MCF7 breast.
The test system of experiment [19] is SNB-19 CNS.
Experiment [20] deals with NCI-H460 lung.

On to `CCCCNC(=S)Nc1nc(C(=O)NNC(=S)NC2CCCCC2)cs1`, for which the TGI in experiment [1] is 35.4 µM; in [2], over 100 µM; in [3], over 100 µM; in experiment [4], over 100 µM; in experiment [5] it was over 100 µM; in [6], over 100 µM. For the same compound, the TGI in [7], in [8], in experiment [9], in experiment [10], in [11] and in experiment [12] was over 100 µM in each case. The TGI in experiment [13], in experiment [14], in [15], in experiment [16], in experiment [17] and in experiment [18] was over 100 µM throughout.
As to `O=C1[C@@H]2[C@@H](c3ccccc3)[C@]2(Cl)C(=O)[C@H]2[C@H](c3ccccc3)[C@@]12Cl`, the TGI in experiment [1], in experiment [2], in experiment [3], in experiment [4], in [5] and in [6] was over 100 µM throughout. Besides, the TGI in experiment [7], in experiment [8], in experiment [9], in experiment [10], in experiment [19] and in [11] was over 100 µM in each case. Further, the TGI in [12], in [13], in [14], in experiment [20], in [15] and in experiment [16] was over 100 µM throughout. For the same compound, the TGI in [17] and in [18] was over 100 µM throughout.
Consider `CC(=O)OCC1OC(SC2OC(COC(C)=O)C(OC(C)=O)C(OC(C)=O)C2OC(C)=O)C(OC(C)=O)C(OC(C)=O)C1OC(C)=O` (stereo unspecified), for which the TGI in experiment [1], in [2], in experiment [3], in experiment [4], in [5] and in experiment [7] was over 100 µM each time. Besides, the TGI in experiment [9], in experiment [10], in experiment [19], in experiment [11], in [12] and in experiment [13] was over 100 µM throughout. For the same compound, the TGI in experiment [14], in experiment [20], in [15], in [16], in [17] and in experiment [18] was over 100 µM each time.
In the case of `CCOC(=O)Cc1nc2sc(S(N)(=O)=O)nn2c1Br`, the TGI in [1] is over 100 µM; in experiment [2], over 100 µM; in experiment [3] it was 48 µM; in [4], 73 µM; in [5] it was 36.1 µM; in experiment [6], 39.5 µM. For the same compound, the TGI in experiment [7] is 93.3 µM; in experiment [8] it was 33.8 µM; in [9] it was over 100 µM; in experiment [10] it was 37.9 µM; in [19], over 100 µM; in [11] it was 65.6 µM. The TGI in experiment [12] was 52.5 µM; in experiment [14] it was 29.4 µM; in experiment [20] it was over 100 µM; in experiment [15] it was over 100 µM; in experiment [16] it was 70.8 µM; in [17], over 100 µM. Also, the TGI in experiment [18] was over 100 µM.
Turning to `CCOC(=O)NC(NC1=NCCS1)(C(=O)OCC)C(F)(F)F` (stereo unspecified), the TGI in [1], in [2], in experiment [3], in [4], in experiment [6] and in experiment [7] was over 100 µM each time. Besides, the TGI in experiment [8], in [9], in [10], in experiment [19], in experiment [11] and in experiment [12] was over 100 µM in each case. Besides, the TGI in experiment [13], in experiment [14], in experiment [20], in [15], in experiment [16] and in experiment [17] was over 100 µM in each case. For the same compound, the TGI in experiment [18] is over 100 µM.
`CCCCCCCCCCCCOP(=O)(O)OCC(N)C(=O)O` (stereo unspecified): the TGI in experiment [1] is 90 µM; in experiment [2], over 100 µM; in [3], over 100 µM; in experiment [4], over 100 µM; in experiment [6] it was over 100 µM; in experiment [7], over 100 µM. Also, the TGI is over 100 µM in experiment [8]; over 100 µM in [9]; 26.7 µM in experiment [10]; 44 µM in experiment [19]; 75.8 µM in experiment [11]; 61 µM in experiment [12]. Moreover, the TGI in [13] is 51.6 µM; in experiment [14], 28.9 µM; in experiment [20], 43.2 µM; in experiment [15] it was over 100 µM; in experiment [16] it was over 100 µM; in experiment [17], over 100 µM. For the same compound, in experiment [18], the TGI is over 100 µM.
Regarding `O=C/C=C/c1ccco1`, the TGI in experiment [1], in experiment [2], in [3], in experiment [4], in [5] and in experiment [6] was over 100 µM each time. The TGI in experiment [7], in experiment [8], in [9], in experiment [10], in experiment [19] and in [11] was over 100 µM in each case. For the same compound, the TGI in experiment [12], in experiment [13], in experiment [14], in [15], in [16] and in experiment [17] was over 100 µM each time. In experiment [18], the TGI is over 100 µM.
Turning to `COC(=O)/C=C/c1ccc2c(c1)CC1(C2)Cc2cc3c(cc2C1=O)CCC3` (stereo unspecified), the TGI in experiment [1], in [3], in [4], in [5], in experiment [6] and in [7] was over 100 µM each time. For the same compound, the TGI in experiment [8], in experiment [9], in experiment [10], in experiment [19], in experiment [11] and in [12] was over 100 µM throughout. In addition, the TGI in experiment [13] is over 100 µM; in experiment [14] it was over 100 µM; in experiment [20], over 100 µM; in [15], over 100 µM; in [16], 81.8 µM; in experiment [17] it was over 100 µM. The compound further had a TGI in [18] of over 100 µM.
As for `O=C(/C=C/c1ccc(O)c(O)c1)c1cc(O)cc(O)c1`, the TGI was over 100 µM in experiment [1]; 28.9 µM in experiment [2]; 51.5 µM in experiment [4]; 26.1 µM in [5]; 3.73 µM in experiment [6]; 28.9 µM in [7]. Moreover, the TGI was 26.9 µM in [8]; 47.7 µM in experiment [9]; 22.7 µM in experiment [10]; 28.5 µM in [19]; 33.4 µM in [11]; 26.2 µM in experiment [12]. Moreover, the TGI turned out to be 20.7 µM in experiment [13]; 22.6 µM in experiment [14]; 44.3 µM in experiment [15]; 29.3 µM in experiment [16]; 42.8 µM in experiment [17]; 12.7 µM in [18].
As to `CSc1ccc(NC(=S)NN(C)C)cc1`, the TGI in experiment [1], in experiment [3], in [4], in experiment [5], in experiment [6] and in [7] was over 10 µM throughout. The TGI in experiment [8], in [9], in [10], in experiment [19], in [11] and in [12] was over 10 µM throughout. Besides, the TGI in experiment [13], in [14], in [20], in experiment [15], in experiment [16] and in [17] was over 10 µM throughout. Also, in experiment [18], the TGI is over 10 µM.
`O=C1/C(=C/c2ccccc2O)N=C(c2ccccc2)N1c1nc2ccccc2s1`: the TGI in [1] is 7.19 µM; in experiment [2], over 100 µM; in experiment [3], over 100 µM; in experiment [4], 77.8 µM; in experiment [6] it was 17.2 µM; in [7], 64.3 µM. The TGI was 85.6 µM in experiment [8]; 52.1 µM in experiment [9]; 28.7 µM in [10]; 53.1 µM in [11]; 57 µM in [13]; over 100 µM in experiment [14]. Moreover, the TGI in [20] was 56.4 µM; in experiment [15], over 100 µM; in experiment [16], over 100 µM; in experiment [17], 77.7 µM; in experiment [18] it was 69.2 µM.
For the compound `O=C(/C=C/c1ccc(/C=C/C(=O)c2ccc(O)cc2)cc1)c1ccc(O)cc1`, the TGI in experiment [1], in experiment [2], in experiment [3], in [4], in experiment [5] and in experiment [7] was over 100 µM in each case. The TGI in experiment [8], in experiment [9], in [10], in experiment [19], in experiment [11] and in experiment [12] was over 100 µM each time. Also, the TGI in experiment [13], in experiment [14], in experiment [20], in experiment [15], in experiment [16] and in experiment [17] was over 100 µM throughout. Moreover, the TGI in [18] was over 100 µM.
On to `COc1cc(COC(=O)N(CC(=O)O)c2ccccc2)c([N+](=O)[O-])cc1OC`, for which the TGI in [1], in experiment [2], in experiment [3], in experiment [4], in experiment [5] and in [7] was over 100 µM each time. Further, the TGI in [8], in experiment [9], in experiment [10], in experiment [19], in [11] and in experiment [12] was over 100 µM in each case. In addition, the TGI in experiment [13], in [14], in experiment [20], in experiment [15], in experiment [16] and in experiment [17] was over 100 µM in each case. The same compound had a TGI in experiment [18] of over 100 µM.
In the case of `O=C(Cc1nccc2c1[nH]c1ccccc12)OC1C#CCSCC#C/C=C\1` (stereo unspecified), the TGI in experiment [1], in experiment [3], in [4], in experiment [5], in [6] and in experiment [7] was over 100 µM throughout. Also, the TGI in experiment [8], in experiment [9], in experiment [10], in [19], in [11] and in experiment [12] was over 100 µM in each case. The TGI in experiment [13], in [14], in experiment [20], in experiment [15], in experiment [16] and in experiment [17] was over 100 µM each time. The same compound yielded a TGI in [18] of over 100 µM.
On to `CC(C)[Si](OC1=CCC[C@H]2NC(=O)[C@@H](Cc3ccccc3)[C@@]12C)(C(C)C)C(C)C`, for which the TGI worked out at 7.19 µM in experiment [1]; 21.3 µM in [2]; 9.16 µM in experiment [3]; 22.4 µM in experiment [5]; 17.4 µM in [6]; 5.25 µM in experiment [7]. Further, the TGI was 24.7 µM in [8]; 21.7 µM in experiment [9]; 11.6 µM in [10]; 22.5 µM in experiment [19]; 19.2 µM in experiment [11]; 9.85 µM in [12]. Besides, the TGI turned out to be 19.1 µM in experiment [13]; 22.3 µM in experiment [14]; 12.4 µM in experiment [20]; 22.1 µM in experiment [15]; 12.2 µM in experiment [16]; 29.1 µM in experiment [17]. Further, the TGI in experiment [18] turned out to be 13.4 µM.
